In article PMC8640094, “Diaportones A–C: Three New Metabolites From Endophytic Fungus Diaporthe foeniculina BZM-15” (Frontiers in Chemistry, 2021):
Where “and” joins values, the source holds several entries; their conditions need not be identical. Equal entries are not always repeated.

Tests used:
[1] = system: normal cell line LX-2; assay: MTT cytotoxicity assay, normal cell line LX-2; type: cell-based; settings: for cell inhibition: listed as Comp.5
Outline: (§1)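 Cells seeded at 5 × 10^4 cells/ml, grown 24 h at 37 °C, 5% CO2, then exposed to compounds for 72 h. Viability by MTT, formazan dissolved in DMSO and OD read at 490 nm; IC50 calculated from OD.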

[2] = system: MCF-7 (breast cancer); assay: MTT cytotoxicity assay, MCF-7 cells; type: cell-based, human; settings: for cell inhibition: listed as Comp.5
Outline: as §1

[3] = system: SF-268 (CNS cancer); assay: MTT cytotoxicity assay, SF-268 cells; type: cell-based, human; settings: for cell inhibition: SF268 cells, listed as Comp.5
Outline: (§2)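 Cells seeded at 5 × 10^4 cells/ml, grown 24 h at 37 °C/5% CO2, then exposed to compounds for 72 h. Viability by MTT, formazan dissolved in DMSO, absorbance at 490 nm; IC50 derived from OD.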

[4] = system: HepG2 (hepatoma cancer); assay: MTT cytotoxicity assay, HepG2 cells; type: cell-based, human; settings: for cell inhibition: listed as Comp.5
Outline: as §2

[5] = LX-2, c 1.00 μM, three replicates
[6] = LX-2, c 2.00 μM, three replicates
[7] = LX-2, c 4.00 μM, three replicates
[8] = LX-2, c 8.00 μM, three replicates
[9] = LX-2, c 16.00 μM, three replicates
[10] = LX-2, c 32.00 μM, three replicates
[11] = LX-2, c 64.00 μM, three replicates
[12] = LX-2, c 128.00 μM, three replicates

Q: Which results are given for `CC(C)C12CC1C(C)(O)CC2=O` (centres unmarked) [compound 5, diaportone C]?
A: inhibition at 1 µM [1, 5]: 11.1%; cell inhibition [1, 5]: 11.45% and 12.45%; inhibition at 2 µM [1, 6]: 13.5%; cell inhibition [1, 6]: 13.52% and 12.56%; inhibition at 4 µM [1, 7]: 23.6%; cell inhibition [1, 7]: 24.13% and 24.41%; inhibition at 8 µM [1, 8]: 30.1%; cell inhibition [1, 8]: 32.44% and 30.6%; inhibition at 16 µM [1, 9]: 31.7%; cell inhibition [1, 9]: 33.08% and 32.3%; inhibition at 32 µM [1, 10]: 46.6%; cell inhibition [1, 10]: 43.56% and 46.07%; inhibition at 64 µM [1, 11]: 70.3%; cell inhibition [1, 11]: 71.68% and 70.2%; inhibition at 128 µM [1, 12]: 89.2%; cell inhibition [1, 12]: 89.22% and 90.45%; IC50 ([1]; MTT, 72 h, mean ± SD (n = 3)): > 40 µM; inhibition at 1 µM ([2]; Homo sapiens, MCF7, MCF-7, c 1.00 μM, three replicates, read-out: cell inhibition): 8.13%; inhibition at 2 µM ([2]; Homo sapiens, MCF7, MCF-7, c 2.00 μM, three replicates, read-out: cell inhibition): 15.1%; inhibition at 4 µM ([2]; Homo sapiens, MCF7, MCF-7, c 4.00 μM, three replicates, read-out: cell inhibition): 21.1%; inhibition at 8 µM ([2]; Homo sapiens, MCF7, MCF-7, c 8.00 μM, three replicates, read-out: cell inhibition): 28.2%; inhibition at 16 µM ([2]; Homo sapiens, MCF7, MCF-7, c 16.00 μM, three replicates, read-out: cell inhibition): 33.4%; inhibition at 32 µM ([2]; Homo sapiens, MCF7, MCF-7, c 32.00 μM, three replicates, read-out: cell inhibition): 41.7%; inhibition at 64 µM ([2]; Homo sapiens, MCF7, MCF-7, c 64.00 μM, three replicates, read-out: cell inhibition): 54.1%; inhibition at 128 µM ([2]; Homo sapiens, MCF7, MCF-7, c 128.00 μM, three replicates, read-out: cell inhibition): 70.1%; IC50 ([2]; Homo sapiens, MCF7, MTT, 72 h, mean ± SD (n = 3)): > 40 µM; cell inhibition ([2]; MCF-7, c 1.00 μM, three replicates): 8.16% and 9.09%; cell inhibition ([2]; MCF-7, c 2.00 μM, three replicates): 16.13% and 15.25%; cell inhibition ([2]; MCF-7, c 4.00 μM, three replicates): 22.04% and 21.31%; cell inhibition ([2]; MCF-7, c 8.00 μM, three replicates): 28.45% and 29.1%; cell inhibition ([2]; MCF-7, c 16.00 μM, three replicates): 33.57% and 33.06%; cell inhibition ([2]; MCF-7, c 32.00 μM, three replicates): 42.15% and 41.31%; cell inhibition ([2]; MCF-7, c 64.00 μM, three replicates): 53.35% and 53.16%; cell inhibition ([2]; MCF-7, c 128.00 μM, three replicates): 71.36% and 73.18%; inhibition at 1 µM ([3]; Homo sapiens, SF-268, SF268 cells, c 1.00 μM, triplicate values, read-out: cell inhibition): 6.47%; inhibition at 2 µM ([3]; Homo sapiens, SF-268, SF268 cells, c 2.00 μM, triplicate values, read-out: cell inhibition): 15.7%; inhibition at 4 µM ([3]; Homo sapiens, SF-268, SF268 cells, c 4.00 μM, triplicate values, read-out: cell inhibition): 22.9%; inhibition at 8 µM ([3]; Homo sapiens, SF-268, SF268 cells, c 8.00 μM, triplicate values, read-out: cell inhibition): 22.1%; inhibition at 16 µM ([3]; Homo sapiens, SF-268, SF268 cells, c 16.00 μM, triplicate values, read-out: cell inhibition): 27.1%; inhibition at 32 µM ([3]; Homo sapiens, SF-268, SF268 cells, c 32.00 μM, triplicate values, read-out: cell inhibition): 31.9%; inhibition at 64 µM ([3]; Homo sapiens, SF-268, SF268 cells, c 64.00 μM, triplicate values, read-out: cell inhibition): 67.2%; inhibition at 128 µM ([3]; Homo sapiens, SF-268, SF268 cells, c 128.00 μM, triplicate values, read-out: cell inhibition): 72.8%; IC50 ([3]; Homo sapiens, SF-268, MTT, 72 h, mean ± SD (n = 3), read-out: IC50 SF268): > 40 µM; cell inhibition ([3]; c 1.00 μM, triplicate values): 6.8% and 6.81%; cell inhibition ([3]; c 2.00 μM, triplicate values): 13.52% and 13.37%; cell inhibition ([3]; c 4.00 μM, triplicate values): 23.4% and 24.41%; cell inhibition ([3]; c 8.00 μM, triplicate values): 23.23% and 26.17%; cell inhibition ([3]; c 16.00 μM, triplicate values): 25.97% and 27.9%; cell inhibition ([3]; c 32.00 μM, triplicate values): 33.15% and 30.82%; cell inhibition ([3]; c 64.00 μM, triplicate values): 67.13% and 67.17%; cell inhibition ([3]; c 128.00 μM, triplicate values): 70.54% and 72.29%; cell inhibition ([4]; HepG2, c 1.00 μM, three replicates): 3.46% and 5.11%; cell inhibition ([4]; HepG2, c 2.00 μM, three replicates): 7.29% and 7.31%; cell inhibition ([4]; HepG2, c 4.00 μM, three replicates): 9.34% and 11.19%; cell inhibition ([4]; HepG2, c 8.00 μM, three replicates): 16.9% and 15.77%; cell inhibition ([4]; HepG2, c 16.00 μM, three replicates): 25.3% and 27.11%; cell inhibition ([4]; HepG2, c 32.00 μM, three replicates): 44.75% and 45.2%; cell inhibition ([4]; HepG2, c 64.00 μM, three replicates): 77.47% and 75.51%; cell inhibition ([4]; HepG2, c 128.00 μM, three replicates): 83.13% and 82.98%; inhibition at 1 µM ([4]; Homo sapiens, HepG2, HepG2, c 1.00 μM, three replicates, read-out: cell inhibition): 3.33%; inhibition at 2 µM ([4]; Homo sapiens, HepG2, HepG2, c 2.00 μM, three replicates, read-out: cell inhibition): 7.36%; inhibition at 4 µM ([4]; Homo sapiens, HepG2, HepG2, c 4.00 μM, three replicates, read-out: cell inhibition): 9.89%; inhibition at 8 µM ([4]; Homo sapiens, HepG2, HepG2, c 8.00 μM, three replicates, read-out: cell inhibition): 16.4%; inhibition at 16 µM ([4]; Homo sapiens, HepG2, HepG2, c 16.00 μM, three replicates, read-out: cell inhibition): 27.6%; inhibition at 32 µM ([4]; Homo sapiens, HepG2, HepG2, c 32.00 μM, three replicates, read-out: cell inhibition): 46.2%; inhibition at 64 µM ([4]; Homo sapiens, HepG2, HepG2, c 64.00 μM, three replicates, read-out: cell inhibition): 77.2%; inhibition at 128 µM ([4]; Homo sapiens, HepG2, HepG2, c 128.00 μM, three replicates, read-out: cell inhibition): 81.1%; IC50 ([4]; Homo sapiens, HepG2, MTT, 72 h, mean ± SD (n = 3)): > 40 µM
